{"source": "patent US10010614B2", "about": "“Derivatives of GLP-1 like peptides, and uses thereof” (Novo Nordisk A/S, priority 2013, dated 2018)", "key": {"[1]": {"assay": "Pharmacokinetic study in minipigs (i.v.)", "type": "in vivo", "details": "male, Göttingen, minipig, plasma, iv; read-out: Terminal half-live (converted)", "description": "The purpose of this study is to determine the protraction in vivo of the GLP-1 derivatives after i.v. administration to minipigs, i.e. the prolongation of their time in the body and thereby their time of action. This is done in a pharmacokinetic (PK) study, where the terminal half-life of the derivative in question is determined. By terminal half-life is meant the time it takes to halve a certain plasma concentration in the terminal elimination phase.\nThe derivatives of Examples 1-5 were dosed with 2 nmol/kg, the derivative of Example 6 was dosed with 5 nmol/kg, and the derivatives of Examples 7-9 were dosed with 15 nmol/kg.\nMale Göttingen minipigs were obtained from Ellegaard Göttingen Minipigs (Dalmose, Denmark) approximately 7-14 months of age and weighing approximately 16-35 kg were used in the studies. The minipigs were housed either individually (pigs with permanent catheters) or in a group and fed restrictedly once or twice daily with SDS minipig diet (Special Diets Services, Essex, UK).\nAfter at least 2 weeks of acclimatisation two permanent central venous catheters were implanted in vena cava caudalis or cranialis in each animal. The animals were allowed 1 week recovery after the surgery, and were then used for repeated pharmacokinetic studies with a suitable wash-out period between successive GLP-1 derivative dosings.\nThe GLP-1 derivatives were dissolved in 50 mM sodium phosphate, 70-145 mM sodium chloride, 0.05% tween 80, pH 7.4 to a concentration of usually from 20-60 nmol/ml.\nIntravenous injections (the volume corresponding to for example 0.050-0.125 ml/kg) of the compounds were given through one catheter or through the venflon, and blood was sampled at predefined time points for up till 25 days post dosing (preferably through the other catheter or by venipuncture). Blood samples (for example 0.8 ml) were collected in EDTA buffer (8 mM) and then centrifuged at 4° C. and 1942G for 10 minutes.\nPlasma was pipetted into Micronic tubes on dry ice, and kept at −20° C. until analysed for plasma concentration of the respective GLP-1 compound using LOCI. Individual plasma concentration-time profiles were analyzed by a non-compartmental pharmacokinetic method in Phoenix v. 6.2 (Pharsight Inc., Mountain View, Calif., USA), or other relevant software for PK analysis, and the resulting terminal half-lives (harmonic mean) determined."}, "human GLP-1 receptor [2]": {"target": "T1, human GLP-1 receptor (Homo sapiens, UniProt P43220)", "T1 construct": "expressed in transfected cells; host or cells: membranes prepared from BHK cells (parent line BHKTS13), clone FCW467-12A", "T1 sequence (P43220 24-463)": "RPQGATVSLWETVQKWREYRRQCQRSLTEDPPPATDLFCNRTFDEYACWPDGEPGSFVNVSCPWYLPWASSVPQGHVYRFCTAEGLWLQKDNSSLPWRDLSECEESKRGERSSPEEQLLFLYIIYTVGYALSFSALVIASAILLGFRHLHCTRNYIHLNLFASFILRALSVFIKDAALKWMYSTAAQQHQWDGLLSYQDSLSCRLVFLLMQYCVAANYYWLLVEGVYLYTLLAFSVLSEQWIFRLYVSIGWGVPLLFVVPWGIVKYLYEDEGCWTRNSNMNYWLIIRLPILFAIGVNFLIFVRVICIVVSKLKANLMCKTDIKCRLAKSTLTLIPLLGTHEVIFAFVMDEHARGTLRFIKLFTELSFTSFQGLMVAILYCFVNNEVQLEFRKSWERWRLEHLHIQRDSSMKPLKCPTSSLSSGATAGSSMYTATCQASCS", "assay": "GLP-1 receptor binding, competitive binding assay (125I-GLP-1, SPA) on isolated membranes;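 further: test compounds added at a range of concentrations to membranes from cells expressing the human GLP-1 receptor, scored by displacement of labelled ligand, read with WGA SPA beads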", "protocol": "The purpose of this example is to test the receptor binding of the GLP-1 derivatives in vitro. The receptor binding is a measure of affinity of a derivative for the human GLP-1 receptor.\nIn this type of assay a labelled ligand (in this case ^125I-GLP-1) is bound to the receptor. Each derivative is added in a series of concentrations to isolated membranes containing the human GLP-1 receptor and displacement of the labelled ligand is monitored. The receptor binding is reported as the concentration at which half of the labelled ligand is displaced from the receptor, the IC50 value.\nThe following chemicals were used in the assay: Human serum albumin (HSA) (Sigma A1653), DMEM w/o phenol red (Gibco 11880-028), Pen/strep (Invitrogen 15140-122), G418 (Invitrogen 10131-027), 1 M Hepes (Gibco 15630), EDTA (Invitrogen 15575-038), PBS (Invitrogen 14190-094), fetal calf serum (Invitrogen 16140-071), EGTA, MgCl2 (Merck 1.05832.1000), Tween 20 (Amresco 0850C335), SPA particles (wheat germ agglutinin (WGA) SPA beads, Perkin Elmer RPNQ0001), [^125I]-GLP-1]-(7-36)NH2 (produced in-house), OptiPlate™-96 (Packard 6005290).\nBuffer 1 consisted of 20 mM Na-HEPES plus 10 mM EDTA and pH was adjusted to 7.4. Buffer 2 consisted of 20 mM Na-HEPES plus 0.1 mM EDTA and pH was adjusted to 7.4. Assay buffer consisted of 50 mM HEPES supplemented with 5 mM EGTA, 5 mM MgCl2, 0.005% Tween 20 and pH was adjusted to 7.4. An 8% albumin stock consisted of HSA dissolved at 8% (w/v) in assay buffer. An 0.02% albumin stock consisted of HSA dissolved at 0.02% (w/v) in assay buffer.\nThe cells express the human GLP-1 receptor.\nThe cells were grown at 5% CO2 in DMEM, 10% fetal calf serum, 1% Pen/Strep (Penicillin/Streptomycin) and 1.0 mg/ml of the selection marker G418.\nTo make a membrane preparation the cells were grown to approximately 80% confluence. The cells were washed twice in phosphate-buffered saline and harvested. The cells were pelleted using a brief centrifugation and the cell pellet was kept on ice. The cell pellet was homogenised with ULTRA-THURRAX™ dispersing instrument for 20-30 seconds in a suitable amount of buffer 1 (e.g., 10 ml). The homogenate was centrifuged for 15 minutes. The pellet was re-suspended (homogenised) in 10 ml buffer 2 and centrifuged. This step was repeated once more. The resulting pellet was re-suspended in buffer 2 and the protein concentration was determined. The membranes were aliquoted and stored at minus 80° C.\nFor the receptor binding assay in the presence of low HSA (0.005%) 50 μl of the assay buffer was added to each well of an assay plate.\nFor the receptor binding assay in the presence of high HSA (2%) 50 μl of the 8% albumin stock was added to each well of an assay plate.\nCell membrane aliquots were thawed and diluted to their working concentration. Fifty μl were added to each well in the assay plate.\nWGA SPA beads were suspended in assay buffer at 20 mg/ml. The suspension was diluted to 10 mg/ml in assay buffer just prior to addition to the assay plate. Fifty μl were added to each well in the assay plate.\nThe incubation was started by adding 25 μl of 480 pM solution of [^125I]-GLP-1]-(7-36)NH2 to each well of the assay plate. A 25 μl aliquot was reserved for measuring total counts/well.\nThe assay plate was incubated for 2 h at 30° C.\nThe assay plate was centrifuged for 10 min.\nThe assay plate was read in a Packard TopCount NXT instrument.\nThe data from the TopCount instrument were transferred to GraphPad Prism software. The software averaged the values for the replicates and performed a non-linear regression. IC50 values were calculated by the software and reported in nM."}, "human GLP-1 receptor [3]": {"target": "T1, human GLP-1 receptor", "assay": "In vitro potency, CRE luciferase reporter gene assay in BHK cells expressing the human GLP-1 receptor", "type": "cell-based", "details": "whole cell reporter gene assay, 3 h incubation, no HSA, averages of at least two replicates", "how_it_was_run": "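Stably transfected BHK cells (5×10^3/well) expressing human GLP-1R with a CRE-luciferase reporter; compounds diluted in buffer with 2% ovalbumin and 0.2% Pluronic F-68, final 1×10^−7 to 1×10^−14 M. Incubated 3 h at 37 °C, 5% CO2, then luminescence read; potency from non-linear log(agonist)–response fit, mean of ≥2 replicates.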"}, "[4]": {"details": "high serum albumin (2.0% HSA final assay concentration), read-out: High HSA IC50"}, "[5]": {"details": "low serum albumin (max. 0.001% final assay concentration), read-out: Low HSA IC50"}}, "note": "Like-named read-outs stand apart in the source and are kept apart here. Numbered stars: 1 amine (or outer) side, 2 acyl side, 3 side chain; on linkers, the order of the positions; unused ones are H or OH. Square brackets hold non-standard residues; d marks the D form. Side chains are listed from the residue outwards. Peptide text beside a SMILES is read from it. * marks the point of attachment. X1 = O=C(O)CCCCCCCCCCCCCCCCCCC(=O)NCC1CCC(C(=O)*)CC1; C20 diacid = O=C(O)CCCCCCCCCCCCCCCCCCC(=O)*; γGlu = O=C(O)[C@H](CCC(=O)[*:2])N[*:1]; εLys = N[C@@H](CCCCN[*:1])C(=O)[*:2]; AEEA = NCCOCCOCC(=O)O; Aib = CC(C)(N)C(=O)O"}
{"smiles": "CC[C@H](C)[C@H](NC(=O)[C@H](Cc1ccccc1)NC(=O)[C@H](CCCCNC(=O)COCCOCCNC(=O)COCCOCCNC(=O)CC[C@H](NC(=O)C1CCC(CNC(=O)CCCCCCCCCCCCCCCCCCC(=O)O)CC1)C(=O)O)NC(=O)[C@H](CCCNC(=N)N)NC(=O)[C@H](C)NC(=O)[C@H](C)NC(=O)[C@H](CCC(N)=O)NC(=O)[C@H](CCC(=O)O)NC(=O)[C@H](CCC(=O)O)NC(=O)[C@H](CC(C)C)NC(=O)[C@H](Cc1ccc(O)cc1)NC(=O)[C@H](CO)NC(=O)[C@H](CO)NC(=O)[C@@H](NC(=O)[C@H](CC(=O)O)NC(=O)[C@H](CO)NC(=O)[C@@H](NC(=O)[C@H](Cc1ccccc1)NC(=O)[C@@H](NC(=O)CNC(=O)[C@H](CCC(=O)O)NC(=O)C(C)(C)NC(=O)[C@@H](N)Cc1c[nH]cn1)[C@@H](C)O)[C@@H](C)O)C(C)C)C(=O)N[C@@H](C)C(=O)N[C@@H](Cc1c[nH]c2ccccc12)C(=O)N[C@@H](CC(C)C)C(=O)N[C@H](C(=O)N[C@@H](CCCNC(=N)N)C(=O)NCC(=O)N[C@@H](CCCNC(=N)N)C(=O)NCC(=O)NCC(=O)NCC(=O)NCC(=O)N[C@@H](CO)C(=O)N[C@@H](CCCCNC(=O)COCCOCCNC(=O)COCCOCCNC(=O)CC[C@H](NC(=O)C1CCC(CNC(=O)CCCCCCCCCCCCCCCCCCC(=O)O)CC1)C(=O)O)C(=O)O)C(C)C", "note": "(stereo partly shown) [Example 1] (H-H[Aib]EGTFTSDVSSYLEEQAARK([AEEA-AEEA-γGlu-X1])FIAWLVRGRGGGGSK([AEEA-AEEA-γGlu-X1])-OH; N-terminus and C-terminus assumed)", "values": [{"measurement": "half-life", "setting": "[1]", "result": 121, "unit": "h"}]}
{"smiles": "CC[C@H](C)[C@H](NC(=O)[C@H](Cc1ccccc1)NC(=O)[C@H](CCC(=O)O)NC(=O)[C@H](CCCNC(=N)N)NC(=O)[C@H](C)NC(=O)[C@H](C)NC(=O)[C@H](CCC(N)=O)NC(=O)[C@H](CCC(=O)O)NC(=O)[C@H](CCC(=O)O)NC(=O)[C@H](CC(C)C)NC(=O)[C@H](Cc1ccc(O)cc1)NC(=O)[C@H](CO)NC(=O)[C@H](CO)NC(=O)[C@@H](NC(=O)[C@H](CC(=O)O)NC(=O)[C@H](CO)NC(=O)[C@@H](NC(=O)[C@H](Cc1ccccc1)NC(=O)[C@@H](NC(=O)CNC(=O)[C@H](CCC(=O)O)NC(=O)C(C)(C)NC(=O)[C@@H](N)Cc1c[nH]cn1)[C@@H](C)O)[C@@H](C)O)C(C)C)C(=O)N[C@@H](C)C(=O)N[C@@H](Cc1c[nH]c2ccccc12)C(=O)N[C@@H](CC(C)C)C(=O)N[C@H](C(=O)N[C@@H](CCCNC(=N)N)C(=O)NCC(=O)N[C@@H](CCCNC(=N)N)C(=O)NCC(=O)N[C@@H](CCCCNC(=O)COCCOCCNC(=O)COCCOCCNC(=O)COCCOCCNC(=O)COCCOCCNC(=O)[C@@H](N)CCCCNC(=O)[C@@H](N)CCCCNC(=O)CCCCCCCCCCCCCCCCCCC(=O)O)C(=O)NCC(=O)NCC(=O)N[C@@H](CO)C(=O)N[C@@H](CCCCNC(=O)COCCOCCNC(=O)COCCOCCNC(=O)COCCOCCNC(=O)COCCOCCNC(=O)[C@@H](N)CCCCNC(=O)[C@@H](N)CCCCNC(=O)CCCCCCCCCCCCCCCCCCC(=O)O)C(=O)O)C(C)C", "note": "[Example 25] (H-H[Aib]EGTFTSDVSSYLEEQAAREFIAWLVRGRGK([AEEA-AEEA-AEEA-AEEA-εLys-εLys-C20 diacid])GGSK([AEEA-AEEA-AEEA-AEEA-εLys-εLys-C20 diacid])-OH; N-terminus and C-terminus assumed)", "values": [{"measurement": "IC50", "setting": "human GLP-1 receptor [2]; [4]", "result": 38, "unit": "nM"}, {"measurement": "IC50", "setting": "human GLP-1 receptor [2]; [5]", "result": 0.22, "unit": "nM"}, {"measurement": "EC50", "setting": "human GLP-1 receptor [3]", "result": 0.01, "unit": "nM"}]}
{"smiles": "CC[C@H](C)[C@H](NC(=O)[C@H](Cc1ccccc1)NC(=O)[C@H](CCC(=O)O)NC(=O)[C@H](CCCNC(=N)N)NC(=O)[C@H](C)NC(=O)[C@H](C)NC(=O)[C@H](CCC(N)=O)NC(=O)[C@H](CCC(=O)O)NC(=O)[C@H](CCC(=O)O)NC(=O)[C@H](CC(C)C)NC(=O)[C@H](Cc1ccc(O)cc1)NC(=O)[C@H](CO)NC(=O)[C@H](CO)NC(=O)[C@@H](NC(=O)[C@H](CC(=O)O)NC(=O)[C@H](CO)NC(=O)[C@@H](NC(=O)[C@H](Cc1ccccc1)NC(=O)[C@@H](NC(=O)CNC(=O)[C@H](CCC(=O)O)NC(=O)C(C)(C)NC(=O)[C@@H](N)Cc1c[nH]cn1)[C@@H](C)O)[C@@H](C)O)C(C)C)C(=O)N[C@@H](C)C(=O)N[C@@H](Cc1c[nH]c2ccccc12)C(=O)N[C@@H](CC(C)C)C(=O)N[C@H](C(=O)N[C@@H](CCCNC(=N)N)C(=O)NCC(=O)N[C@@H](CCCNC(=N)N)C(=O)NCC(=O)N[C@@H](CCCCNC(=O)COCCOCCNC(=O)COCCOCCNC(=O)COCCOCCNC(=O)COCCOCCNC(=O)COCCOCCNC(=O)[C@@H](N)CCCCNC(=O)[C@@H](N)CCCCNC(=O)CCCCCCCCCCCCCCCCCCC(=O)O)C(=O)NCC(=O)NCC(=O)N[C@@H](CO)C(=O)N[C@@H](CCCCNC(=O)COCCOCCNC(=O)COCCOCCNC(=O)COCCOCCNC(=O)COCCOCCNC(=O)COCCOCCNC(=O)[C@@H](N)CCCCNC(=O)[C@@H](N)CCCCNC(=O)CCCCCCCCCCCCCCCCCCC(=O)O)C(=O)O)C(C)C", "note": "[Example 27] (H-H[Aib]EGTFTSDVSSYLEEQAAREFIAWLVRGRGK([AEEA-AEEA-AEEA-AEEA-AEEA-εLys-εLys-C20 diacid])GGSK([AEEA-AEEA-AEEA-AEEA-AEEA-εLys-εLys-C20 diacid])-OH; N-terminus and C-terminus assumed)", "values": [{"measurement": "IC50", "setting": "human GLP-1 receptor [2]; [4]", "result": 30, "unit": "nM"}, {"measurement": "IC50", "setting": "human GLP-1 receptor [2]; [5]", "result": 0.08, "unit": "nM"}, {"measurement": "EC50", "setting": "human GLP-1 receptor [3]", "result": 0.0044, "unit": "nM"}]}
{"smiles": "CC[C@H](C)[C@H](NC(=O)[C@H](Cc1ccccc1)NC(=O)[C@H](CCC(=O)O)NC(=O)[C@H](CCCNC(=N)N)NC(=O)[C@H](C)NC(=O)[C@H](C)NC(=O)[C@H](CCC(N)=O)NC(=O)[C@H](CCC(=O)O)NC(=O)[C@H](CCC(=O)O)NC(=O)[C@H](CC(C)C)NC(=O)[C@H](Cc1ccc(O)cc1)NC(=O)[C@H](CO)NC(=O)[C@H](CO)NC(=O)[C@@H](NC(=O)[C@H](CC(=O)O)NC(=O)[C@H](CO)NC(=O)[C@@H](NC(=O)[C@H](Cc1ccccc1)NC(=O)[C@@H](NC(=O)CNC(=O)[C@H](CCC(=O)O)NC(=O)C(C)(C)NC(=O)[C@@H](N)Cc1c[nH]cn1)[C@@H](C)O)[C@@H](C)O)C(C)C)C(=O)N[C@@H](C)C(=O)N[C@@H](Cc1c[nH]c2ccccc12)C(=O)N[C@@H](CC(C)C)C(=O)N[C@H](C(=O)N[C@@H](CCCNC(=N)N)C(=O)NCC(=O)N[C@@H](CCCNC(=N)N)C(=O)NCC(=O)N[C@@H](CCCCNC(=O)COCCOCCNC(=O)COCCOCCNC(=O)COCCOCCNC(=O)COCCOCCNC(=O)COCCOCCNC(=O)COCCOCCNC(=O)[C@@H](N)CCCCNC(=O)[C@@H](N)CCCCNC(=O)CCCCCCCCCCCCCCCCCCC(=O)O)C(=O)NCC(=O)NCC(=O)N[C@@H](CO)C(=O)N[C@@H](CCCCNC(=O)COCCOCCNC(=O)COCCOCCNC(=O)COCCOCCNC(=O)COCCOCCNC(=O)COCCOCCNC(=O)COCCOCCNC(=O)[C@@H](N)CCCCNC(=O)[C@@H](N)CCCCNC(=O)CCCCCCCCCCCCCCCCCCC(=O)O)C(=O)O)C(C)C", "note": "[Example 28] (H-H[Aib]EGTFTSDVSSYLEEQAAREFIAWLVRGRGK([AEEA-AEEA-AEEA-AEEA-AEEA-AEEA-εLys-εLys-C20 diacid])GGSK([AEEA-AEEA-AEEA-AEEA-AEEA-AEEA-εLys-εLys-C20 diacid])-OH; N-terminus and C-terminus assumed)", "values": [{"measurement": "IC50", "setting": "human GLP-1 receptor [2]; [4]", "result": 30, "unit": "nM"}, {"measurement": "IC50", "setting": "human GLP-1 receptor [2]; [5]", "result": 0.05, "unit": "nM"}, {"measurement": "EC50", "setting": "human GLP-1 receptor [3]", "result": 0.0034, "unit": "nM"}]}
